Legend:
[1] = tested on: CD3+ T cells; assay: T cell transfection in vitro with varied LNP components, mOX40L mRNA; type: cell-based, human; conditions: as ionizable lipid or PEG lipid component, Table 23
Description: In this example, human peripheral blood mononuclear cells (PBMCs) from two different Donors (Donor 1 and Donor 2) were incubated in the presence of mRNA encoding mouse OX40L (mOX40L) (20 ng or 50 ng) encapsulated in each of the three different LNP compositions tested in Example 3. PBS was used as a negative control. Human PBMCs were incubated ex vivo with the various LNPs at 37° C. After 24 hours, cells were analyzed by flow cytometry for mOX40L protein expression in CD3+ T cells.
In this Example, LNPs were made with various lipid components and at different ratios and were tested for their ability to transfect T cells in vitro. Transfection was performed as in Example 5 using LNPs encapsulating an mRNA encoding mouse OX40L.
In a first set of experiments, phytosterol was used as the immune cell delivery potentiating lipid and other lipid constituents of the LNP were varied.

[2] = tested on: T cells; assay: LNP association and GFP mRNA expression in T cells of human PBMCs; type: cell-based; conditions: for immune cell delivery potentiating ability in T cells, amino lipid panel: ionizable lipid component of the LNP, FIG. 30
Description: In a second series of experiments, additional compounds, were tested in the LNPs for their ability to enhance delivery to T cells. For these experiments, the association of the LNP with cells and the expression of mRNA-encoding protein within the transfected cells was assessed at the cell-by-cell level. Peripheral blood mononuclear cells (PBMCs) from human donors were used. PBMCs were predominately T cells (40-60%), B cells (3-15%), and monocytes (15-35%), but also contained small numbers of other cell types. LNPs were incubated with serum or PBS for 30 minutes and then added to the PBMCs. The LNP concentration was 0.050 mg/ml, the LNP volume was 0.1 ml.
LNPs contained 0.1% Rhodamine-DOPE in addition to the other LNP components to facilitate detection. Thus, the ratios set forth in the tables below include 0.1 for the rhodamine label. For example, 50:10:10:27.9:2:0.1 AL:DSPC:chol:sterol:Cmp 428 indicates 50% amino lipid as the ionizable lipid, 10% DSPC as the phospholipid, 10% cholesterol, 27.9% phytosterol, 2% Compound 428 as the PEG lipid and 0.1% for the rhodamine-DOPE label. To prepare a non-labeled LNP, the same ratios are used except that the 0.1% rhodamine label is omitted and an additional 0.1% of structural lipid (cholesterol or cholesterol/phytosterol blend) is used (e.g., 27.9% becomes 28%).
Cells were sorted by flow cytometry into subsets based on expression of certain markers: CD3 (T cells), CD20 (B cells), and CD3-, CD20-, CD14+(Monocytes).
mRNA encoding GFP was used as a model agent to effect expression of an intracellular protein.
When conducting flow cytometry, the Y-axis was signal from the rhodamine tag on the LNP and the X-axis was the GFP signal showing expression of the protein.
The “associated” population is any rhodamine+ and/or GFP+ cell and the percent of these cells was calculated by dividing by the total number of cells. The “expression” population is any GFP+ cell and the percent of these cells was calculated by dividing by the total number of cells. The percent of associated cells expressing was obtained by dividing the % expressing cells by the % associated cells.

[3] = tested on: monocytes; assay: Sterol panel in LNPs, delivery in vivo (FIG. 40); conditions: Cmpd X/sterol/Cmpd 428 LNPs, Y-axis percentage of CD3+ cells in spleen expressing mOX40L
Description: In a second series of experiments, an additional panel of sterol compounds was tested in LNPs for monocyte delivery in vivo. The results for this panel of sterols tested for the structural lipid component of the LNP are shown in the bar graph of FIG. 40. […] The bars/lanes on the X-axis labeled 1-9 correspond to the following LNP compositions tested for mRNA delivery in vivo: Lane 1 is PBS. Lane 2 is Cmpd X/Cmpd 428, Lane 3 is Cmpd X/β sitosterol/Cmpd 428, Lane 4 is Cmpd X/β-sitosterol-d7/Cmpd 428, Lane 5 is Cmpd X/brassicasterol/Cmpd 428, Lane 6 is Cmpd X/unnamed sterol/Cmpd 428, Lane 7 is Cmpd X/Cmpd S-30/Cmpd 428, Lane S is Cmpd X/Cnpd S-32/Cmpd 428, Lane 9 is Cmpd X/Cmpd S-31/Cmpd 428.

[4] = tested on: T cells; assay: LNP association and GFP mRNA expression in T cells of human PBMCs; type: cell-based; conditions: third series, in vitro, FIG. 35
[5] = tested on: splenic CD3+ T cells; assay: Transfection of splenic T cells in vivo in mice; conditions: for capability to transfect splenic CD3+ T cells in vivo: as ionizable lipid, 0.5 mg/kg i.v., 24 hours, FIG. 36
Description: In this Example, LNPs were made with various lipid components identified in the in vitro screens described in Example 17 and mice were administered the LNPs encapsulating a murine OX40L-encoding mRNA. The compositions shown below in Table 26 were tested in which the ratios of the components in each composition was 50% ionizable lipid, 10% phospholipid, 38.5% structural lipid and 1.5% PEG lipid.
Mice were treated intravenously with a single injection at a dose concentration of 0.1 mg/ml and at a dose level of 0.5 mg/kg. PBS was used as a negative control.

[6] = tested on: T cells; assay: Additional LNPs: T cell transfection in vitro, mOX40L mRNA, labeled LNPs; type: cell-based, human; conditions: ionizable lipid component, FIG. 43
Description: In this Example, additional LNPs comprising various lipid components and at different ratios were made and tested for their ability to transfect T cells in vitro. Transfection was performed as in Example 5 using LNPs encapsulating an mRNA encoding mouse OX40L. LNPs were labeled and the results were determined for the mean % cells with LNPs associated, the mean % cells expressing mOX40L and the % of LNP-associated cells expressing mOX40L, as described hereinbefore.

| Structure (SMILES) | immune cell delivery potentiating ability in T cells, amino lipid panel [2] | capability to transfect splenic CD3+ T cells in vivo [5] | immune cell delivery potentiating ability in T cells, amino lipid panel [6] | also measured |
| --- | --- | --- | --- | --- |
| CCCCCCCCCCCCCCCCCC(=O)OCCOCCOCCOCCOCCOCCOCCOCCOCCOCCOCCOCCOCCOCCOCCOCCOCCOCCOCCOCCOCCOCCOCCOCCOCCOCCOCCOCCOCCOCCOCCOCCOCCOCCOCCOCCOCCOCCOCCOCCOCCOCCOCCOCCOCCO [Compound 428] | – | – | – | delivery to T cells with phytosterol-containing LNP [1]: enhanced delivery to T cells; immune cell delivery potentiating ability in T cells, PEG lipid panel ([2]; PEG lipid component of the LNP, FIG. 33): exhibited immune cell delivery potentiating ability in T cells |
| CC(C)[C@@H](C)/C=C/[C@@H](C)[C@H]1CC[C@H]2[C@@H]3CC=C4C[C@@H](O)CC[C@]4(C)[C@H]3CC[C@]12C [brassicasterol] | – | – | – | immune cell delivery potentiating ability in monocytes, additional sterol panel in vivo [3]: exhibited immune cell delivery potentiating ability in monocytes; immune cell delivery potentiating ability in T cells, additional sterol panel [4]: exhibited immune cell delivery potentiating ability in T cells |
| CCCCCCCCCOC(=O)CCCCCCCN(CCCCCCCOC(=O)C(CCCCCCCC)CCCCCCCC)CCCNc1c(NC)c(=O)c1=O [Compound I-326] | exhibited immune cell delivery potentiating ability in T cells | even higher capability to transfect splenic CD3+ T cells in vivo than the positive control LNP containing Compound X | exhibited immune cell delivery potentiating ability in T cells | delivery and uptake by T cells, only cholesterol as structural lipid ([2]; Experiment 2, mean % cells expressing the mRNA relative to positive control (Compound X, β-sitosterol)): effective at potentiating delivery and uptake by T cells; transfection of CD3+ T cells in vivo, only cholesterol as structural lipid ([5]; FIG. 36 lanes 6 and 8, relative to positive control LNP (Compound X, β-sitosterol)): effective at potentiating transfecting CD3+ T cells in vivo |
| CCCCCCCCC(CC)OC(=O)CCCCCCCN(CCCCCCCC(=O)OC(CCCCCCCC)CCCCCCCC)CCCNc1c(NC)c(=O)c1=O (stereo not drawn) [Compound I-301, Heptadecan-9-yl 8-((3-((2-(methylamino)-3,4-dioxocyclobut-1-en-1-yl)amino)propyl)(8-oxo-8-(undecan-3-yloxy)octyl)amino)octanoate] | exhibited immune cell delivery potentiating ability in T cells | even higher capability to transfect splenic CD3+ T cells in vivo than the positive control LNP containing Compound X | exhibited immune cell delivery potentiating ability in T cells | – |

Source: patent US20230027864A1, “COMPOSITIONS AND METHODS FOR DELIVERY OF AGENTS TO IMMUNE CELLS” (ModernaTX, Inc., priority 2018, published 2023)
